{"source": "patent US20210267944A1", "about": "(BioXcel Therapeutics, Inc., priority 2018, published 2021)", "key": {"[1]": {"details": "SDAT study"}, "[2]": {"experiment": "clinical", "details": "human, in vivo", "method": "These samples were assayed for the concentration of the drug in those participants randomized to test product."}, "[3]": {"tested_on": "subjects suffering from schizophrenia", "text": "The level of agitation in subjects may be assessed herein using the PEC (Positive and Negative Symptom Scale—Excitatory Component) scale, which is a known five item scale that measures symptoms of agitation, namely excitement, tension, hostility, uncooperativeness, and poor impulse control, with each item rated from 1 (absent) to 7 (extremely severe). Combined scores range from 5 to 35. A score of 20 or more corresponds to severe agitation."}, "[4]": {"details": "human, in vivo"}, "[5]": {"tested_on": "subjects suffering from opiate withdrawal symptoms", "details": "Day 1"}}, "note": "Where a name gives a salt, the structure may show the parent alone. Read-outs that look alike come from different tables or passages of the source.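 Throughout, for COW score: inpatients in opioid withdrawal given intravenous infusion titrated upward every 30 min (up to 0.1 mcg/kg/hr steps) until COWS total, a clinician-rated 11-item withdrawal scale, fell by half.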", "data": [{"smiles": "Cc1cccc([C@H](C)c2cnc[nH]2)c1C", "note": "[dexmedetomidine hydrochloride]", "values": [{"measurement": "adverse events", "setting": "[1]", "value": "No adverse event was reported"}, {"measurement": "Time to reach Cmax, range", "setting": "[2]", "value": "60 to 150", "unit": "min"}, {"measurement": "maximum dexmedetomidine concentrations, range", "setting": "[2]", "value": "102 to 380", "unit": "pg/mL"}, {"measurement": "Plasma concentrations", "setting": "[2]; 0 h", "value": 0, "unit": "ng/mL"}, {"measurement": "Plasma concentrations", "setting": "[2]; 2 h", "value": 0.31805, "unit": "ng/mL"}, {"measurement": "concentration at 0 h", "setting": "[2]; Plasma concentrations", "value": 0, "unit": "ng/mL"}, {"measurement": "concentration at 2 h", "setting": "[2]; Plasma concentrations", "value": 0.378, "unit": "ng/mL"}, {"measurement": "PEC values after infusion start", "setting": "[3]; Patient No. 1, treatment arm, 0 min", "value": 9}, {"measurement": "PEC values after infusion start", "setting": "[3]; Patient No. 1, treatment arm, 15 min", "value": 5}, {"measurement": "PEC values after infusion start", "setting": "[3]; Patient No. 2, treatment arm, 0 min", "value": 16}, {"measurement": "PEC values after infusion start", "setting": "[3]; Patient No. 2, treatment arm, 15 min", "value": 13}, {"measurement": "PEC values after infusion start", "setting": "[3]; Patient No. 2, treatment arm, 30 min", "value": 12}, {"measurement": "PEC values after infusion start", "setting": "[3]; Patient No. 2, treatment arm, 45 min", "value": 11}, {"measurement": "PEC values after infusion start", "setting": "[3]; Patient No. 2, treatment arm, 60 min", "value": 9}, {"measurement": "PEC values after infusion start", "setting": "[3]; Patient No. 2, treatment arm, 75 min", "value": 7}, {"measurement": "PEC values after infusion start", "setting": "[3]; Patient No. 3, treatment arm, 0 min", "value": 12}, {"measurement": "PEC values after infusion start", "setting": "[3]; Patient No. 3, treatment arm, 15 min", "value": 12}, {"measurement": "PEC values after infusion start", "setting": "[3]; Patient No. 3, treatment arm, 30 min", "value": 10}, {"measurement": "PEC values after infusion start", "setting": "[3]; Patient No. 3, treatment arm, 45 min", "value": 7}, {"measurement": "PEC values after infusion start", "setting": "[3]; Patient No. 3, treatment arm, 60 min", "value": 6}, {"measurement": "PEC values after infusion start", "setting": "[3]; Patient No. 4, treatment arm, 0 min", "value": 9}, {"measurement": "PEC values after infusion start", "setting": "[3]; Patient No. 4, treatment arm, 15 min", "value": 9}, {"measurement": "PEC values after infusion start", "setting": "[3]; Patient No. 4, treatment arm, 30 min", "value": 8}, {"measurement": "PEC values after infusion start", "setting": "[3]; Patient No. 4, treatment arm, 45 min", "value": 8}, {"measurement": "PEC values after infusion start", "setting": "[3]; Patient No. 4, treatment arm, 60 min", "value": 7}, {"measurement": "PEC values after infusion start", "setting": "[3]; Patient No. 4, treatment arm, 75 min", "value": 7}, {"measurement": "PEC values after infusion start", "setting": "[3]; Patient No. 4, treatment arm, 90 min", "value": 7}, {"measurement": "PEC values after infusion start", "setting": "[3]; Patient No. 4, treatment arm, […]", "value": 7}, {"measurement": "PEC values after infusion start", "setting": "[3]; Patient No. 11, treatment arm, 0 min", "value": 13}, {"measurement": "PEC values after infusion start", "setting": "[3]; Patient No. 11, treatment arm, 15 min", "value": 13}, {"measurement": "PEC values after infusion start", "setting": "[3]; Patient No. 11, treatment arm, 30 min", "value": 11}, {"measurement": "PEC values after infusion start", "setting": "[3]; Patient No. 11, treatment arm, 45 min", "value": 9}, {"measurement": "PEC values after infusion start", "setting": "[3]; Patient No. 11, treatment arm, 60 min", "value": 9}, {"measurement": "PEC values after infusion start", "setting": "[3]; Patient No. 11, treatment arm, 75 min", "value": 7}, {"measurement": "PEC values after infusion start", "setting": "[3]; Patient No. 12, treatment arm, 0 min", "value": 13}, {"measurement": "PEC values after infusion start", "setting": "[3]; Patient No. 12, treatment arm, 15 min", "value": 13}, {"measurement": "PEC values after infusion start", "setting": "[3]; Patient No. 12, treatment arm, 30 min", "value": 13}, {"measurement": "PEC values after infusion start", "setting": "[3]; Patient No. 12, treatment arm, 45 min", "value": 10}, {"measurement": "PEC values after infusion start", "setting": "[3]; Patient No. 12, treatment arm, 60 min", "value": 10}, {"measurement": "PEC values after infusion start", "setting": "[3]; Patient No. 12, treatment arm, 75 min", "value": 8}, {"measurement": "PEC values after infusion start", "setting": "[3]; Patient No. 12, treatment arm, 90 min", "value": 6}, {"measurement": "PEC values after infusion start", "setting": "[3]; Patient No. 12, treatment arm, […]", "value": 5}, {"measurement": "PEC values after infusion start", "setting": "[3]; Patient No. 14, treatment arm, 0 min", "value": 10}, {"measurement": "PEC values after infusion start", "setting": "[3]; Patient No. 14, treatment arm, 15 min", "value": 9}, {"measurement": "PEC values after infusion start", "setting": "[3]; Patient No. 14, treatment arm, 30 min", "value": 6}, {"measurement": "PEC values after infusion start", "setting": "[3]; Patient No. 14, treatment arm, 45 min", "value": 6}, {"measurement": "PEC values after infusion start", "setting": "[3]; Patient No. 14, treatment arm, 60 min", "value": 5}, {"measurement": "PEC values after infusion start", "setting": "[3]; Patient No. 14, treatment arm, 75 min", "value": 5}, {"measurement": "PEC values after infusion start", "setting": "[3]; Patient No. 16, treatment arm, 0 min", "value": 10}, {"measurement": "PEC values after infusion start", "setting": "[3]; Patient No. 16, treatment arm, 15 min", "value": 9}, {"measurement": "PEC values after infusion start", "setting": "[3]; Patient No. 16, treatment arm, 30 min", "value": 6}, {"measurement": "PEC values after infusion start", "setting": "[3]; Patient No. 16, treatment arm, 45 min", "value": 6}, {"measurement": "PEC values after infusion start", "setting": "[3]; Patient No. 16, treatment arm, 60 min", "value": 7}, {"measurement": "PEC values after infusion start", "setting": "[3]; Patient No. 16, treatment arm, 75 min", "value": 5}, {"measurement": "PEC values after infusion start", "setting": "[3]; Patient No. 17, treatment arm, 0 min", "value": 10}, {"measurement": "PEC values after infusion start", "setting": "[3]; Patient No. 17, treatment arm, 15 min", "value": 8}, {"measurement": "PEC values after infusion start", "setting": "[3]; Patient No. 17, treatment arm, 30 min", "value": 7}, {"measurement": "PEC values after infusion start", "setting": "[3]; Patient No. 17, treatment arm, 45 min", "value": 5}, {"measurement": "Efficacy (Primary/secondary end points): subjects with PEC score below 7", "setting": "[3]; Schizophrenia Study", "value": "9/10 PEC score"}, {"measurement": "patients in the treatment arm with agitation reduced to a minimum (PEC score of 7 or below)", "setting": "[3]; schizophrenia", "value": "9 out of 10"}, {"measurement": "Time to reach Cmax, range", "setting": "[4]", "value": "15 to 105", "unit": "min"}, {"measurement": "COW score", "setting": "[5]; Patient OP-1 (Treatment), 00:00 Hr", "value": 9}, {"measurement": "COW score", "setting": "[5]; Patient OP-1 (Treatment), 00:15 Hr", "value": 2}, {"measurement": "COW score", "setting": "[5]; Patient OP-1 (Treatment), 30 min. post Infusion", "value": 0}, {"measurement": "COW score", "setting": "[5]; Patient OP-2 (Treatment), 00:00 Hr", "value": 15}, {"measurement": "COW score", "setting": "[5]; Patient OP-2 (Treatment), 00:15 Hr", "value": 11}, {"measurement": "COW score", "setting": "[5]; Patient OP-2 (Treatment), 00:30 Hr", "value": 9}, {"measurement": "COW score", "setting": "[5]; Patient OP-2 (Treatment), 00:45 Hr", "value": 12}, {"measurement": "COW score", "setting": "[5]; Patient OP-2 (Treatment), 01:00 Hr", "value": 2}, {"measurement": "COW score", "setting": "[5]; Patient OP-2 (Treatment), 30 min. post Infusion", "value": 16}, {"measurement": "COW score", "setting": "[5]; Patient OP-3 (Treatment), 00:00 Hr", "value": 13}, {"measurement": "COW score", "setting": "[5]; Patient OP-3 (Treatment), 00:15 Hr", "value": 8}, {"measurement": "COW score", "setting": "[5]; Patient OP-3 (Treatment), 00:30 Hr", "value": 8}, {"measurement": "COW score", "setting": "[5]; Patient OP-3 (Treatment), 00:45 Hr", "value": 4}, {"measurement": "COW score", "setting": "[5]; Patient OP-3 (Treatment), 30 min. post Infusion", "value": 3}, {"measurement": "COW score", "setting": "[5]; Patient OP-6 (Treatment), 00:00 Hr", "value": 11}, {"measurement": "COW score", "setting": "[5]; Patient OP-6 (Treatment), 00:15 Hr", "value": 7}, {"measurement": "COW score", "setting": "[5]; Patient OP-6 (Treatment), 00:30 Hr", "value": 2}, {"measurement": "COW score", "setting": "[5]; Patient OP-6 (Treatment), 30 min. post Infusion", "value": 2}, {"measurement": "COW score", "setting": "[5]; Patient OP-7 (Treatment), 00:00 Hr", "value": 10}, {"measurement": "COW score", "setting": "[5]; Patient OP-7 (Treatment), 00:15 Hr", "value": 8}]}]}
